Data as given in ChEMBL document CHEMBL1153382 (J Med Chem, 2009).
The source made the active and inactive calls. The calls are words filed in the database; no cut-off is given here.

Legend:
[1] = target: T1, 5-hydroxytryptamine receptor 2A (Homo sapiens, UniProt P28223); test: Agonist activity at human 5HT2A receptor expressed in HEK293 cells assessed as calcium flux by FLIPR assay; assay type: functional, cell-based
[2] = target: T2, 5-hydroxytryptamine receptor 2B (Homo sapiens, UniProt P41595); test: Agonist activity at human 5HT2B receptor expressed in HEK293 cells at 10 uM assessed as calcium flux by FLIPR assay relative to serotonin; assay type: functional, cell-based
[3] = target: T1, 5-hydroxytryptamine receptor 2A; test: Agonist activity at human 5HT2A receptor expressed in HEK293 cells at 10 uM assessed as calcium flux by FLIPR assay relative to serotonin; assay type: functional, cell-based
[4] = target: T3, 5-hydroxytryptamine receptor 2C (Homo sapiens, UniProt P28335); test: Agonist activity at human 5HT2C receptor expressed in HEK293 cells assessed as calcium flux by FLIPR assay; assay type: functional, cell-based
T3 sequence (P28335 whole entry): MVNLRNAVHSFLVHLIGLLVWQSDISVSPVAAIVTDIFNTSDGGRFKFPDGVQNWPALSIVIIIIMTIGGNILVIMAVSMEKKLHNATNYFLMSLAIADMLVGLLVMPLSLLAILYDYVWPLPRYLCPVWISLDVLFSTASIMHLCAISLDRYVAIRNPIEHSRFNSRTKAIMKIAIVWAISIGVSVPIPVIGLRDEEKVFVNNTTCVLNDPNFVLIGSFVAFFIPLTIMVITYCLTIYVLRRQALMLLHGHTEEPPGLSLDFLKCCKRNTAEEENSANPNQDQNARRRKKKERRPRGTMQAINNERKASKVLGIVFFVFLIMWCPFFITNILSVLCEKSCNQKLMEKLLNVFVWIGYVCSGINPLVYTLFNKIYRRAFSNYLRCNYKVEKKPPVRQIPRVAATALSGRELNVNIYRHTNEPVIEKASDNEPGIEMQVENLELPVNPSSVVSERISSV

[5] = target: T2, 5-hydroxytryptamine receptor 2B; test: Agonist activity at human 5HT2B receptor expressed in HEK293 cells assessed as calcium flux by FLIPR assay; assay type: functional, cell-based
[6] = target: T4, 5-hydroxytryptamine receptor 2C (Homo sapiens) (UniProt P28335); test: Agonist activity at human 5HT2C receptor expressed in HEK293 cells at 10 uM assessed as calcium flux by FLIPR assay relative to serotonin; assay type: functional, cell-based
T4 sequence (whole entry): T3 sequence (P28335 whole entry)

[7] = target: Serotonin 2 receptors; 5-HT2a & 5-HT2c (Homo sapiens) (UniProt P28223+P28335); test: Selectivity ratio of EC50 for human 5HT2A receptor to EC50 for human 5HT2C receptor
Homo sapiens = species on record: Homo sapiens; test: Selectivity ratio of EC50 for human 5HT2B receptor to EC50 for human 5HT2C receptor

T2 sequence (P41595 whole entry): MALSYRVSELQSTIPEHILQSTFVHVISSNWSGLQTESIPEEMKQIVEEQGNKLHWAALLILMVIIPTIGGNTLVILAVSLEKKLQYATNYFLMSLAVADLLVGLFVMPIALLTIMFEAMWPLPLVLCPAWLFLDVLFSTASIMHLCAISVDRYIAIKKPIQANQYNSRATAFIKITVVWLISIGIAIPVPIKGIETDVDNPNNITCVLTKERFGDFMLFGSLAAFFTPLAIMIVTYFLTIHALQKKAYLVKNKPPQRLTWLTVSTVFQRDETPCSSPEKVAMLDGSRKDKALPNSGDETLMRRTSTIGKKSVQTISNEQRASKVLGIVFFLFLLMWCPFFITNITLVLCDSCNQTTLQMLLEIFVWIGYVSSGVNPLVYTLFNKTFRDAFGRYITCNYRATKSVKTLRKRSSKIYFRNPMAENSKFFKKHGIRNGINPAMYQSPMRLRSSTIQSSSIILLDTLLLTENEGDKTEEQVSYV
T1 sequence (P28223 whole entry): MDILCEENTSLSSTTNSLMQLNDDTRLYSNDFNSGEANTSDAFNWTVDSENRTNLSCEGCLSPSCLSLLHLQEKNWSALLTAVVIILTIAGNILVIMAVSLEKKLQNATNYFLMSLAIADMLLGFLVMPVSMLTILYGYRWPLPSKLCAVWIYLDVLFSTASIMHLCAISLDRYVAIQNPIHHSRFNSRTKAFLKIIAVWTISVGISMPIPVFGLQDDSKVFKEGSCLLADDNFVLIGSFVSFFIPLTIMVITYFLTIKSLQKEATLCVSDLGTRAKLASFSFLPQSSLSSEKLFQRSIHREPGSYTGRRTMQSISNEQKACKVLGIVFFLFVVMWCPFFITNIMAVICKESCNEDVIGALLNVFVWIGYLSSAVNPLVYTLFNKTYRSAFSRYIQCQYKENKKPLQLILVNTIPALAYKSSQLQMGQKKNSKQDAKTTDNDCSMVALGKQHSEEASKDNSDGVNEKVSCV
Sequence of Serotonin 2 receptors; 5-HT2a & 5-HT2c (Homo sapiens) (P28223 whole entry, looked up, one chain of several): as the sequence (P28223 whole entry) above

SMILES | Activity [1] | Emax [2] | Emax [3] | EC50 [4] | Activity [5] | EC50 [5] | EC50 [1] | Emax [6] | Ratio EC50 [7] | Ratio EC50 (Homo sapiens)
c1cc2c3c(c1)c1c(n3CCNC2)CCCC1 | inactive | < 12% | < 12% | 261 nM | inactive | – | – | – | – | –
NC[C@@H]1C[C@H]1c1ccccc1 | – | – | – | 909 nM | – | 3090 nM | – | – | – | –
NC[C@H]1C[C@@H]1c1ccccc1 | – | 111% | 79% | 5.2 nM | – | 37 nM | 1400 nM | 108% | 268 | 7.2
NC[C@@H]1C[C@H]1c1ccccc1Br [listing 1 of 2 here] | – | – | – | 78 nM | – | 224 nM | – | – | – | –
NC[C@@H]1C[C@H]1c1ccccc1Br [listing 2 of 2 here] | inactive | 96% | < 12% | – | – | – | – | 113% | > 128 | 2.9
c1ccc(CNC[C@H]2C[C@@H]2c2ccccc2)cc1 (racemic) | inactive | 10% | < 12% | – | inactive | – | – | 97% | – | –
N[C@@H]1C[C@H]1c1ccccc1.N[C@H]1C[C@@H]1c1ccccc1 (racemic) [TRANYLCYPROMINE] | inactive | 29% | < 12% | 2700 nM | – | > 5000 nM | – | 109% | – | –
N#Cc1ccc(-c2cccc([C@H]3C[C@@H]3CN)c2)cc1 (relative stereo) | inactive | < 12% | < 12% | > 1000 nM | inactive | – | – | 41% | – | –
C#Cc1cccc([C@H]2C[C@@H]2CN)c1 (relative stereo) | – | 84% | 42% | 136 nM | – | 185 nM | > 10000 nM | 91% | – | 1.4
NC[C@H]1C[C@@H]1c1cccc(-c2cc3ccccc3o2)c1 (relative stereo) | inactive | < 12% | < 12% | > 1000 nM | inactive | – | – | 39% | – | –
CC(=O)Nc1cccc([C@H]2C[C@@H]2CN)c1 (relative stereo) | inactive | < 12% | < 12% | > 1000 nM | inactive | – | – | 39% | – | –
CC(=O)Nc1ccccc1[C@H]1C[C@@H]1CN (relative stereo) | inactive | < 12% | < 12% | > 1000 nM | inactive | – | – | 30% | – | –
NC[C@H]1C[C@@H]1c1ccc(-c2ccc(F)cc2)cc1 (relative stereo) | inactive | 10% | < 12% | > 1000 nM | – | > 1000 nM | – | 45% | – | –
NC[C@H]1C[C@@H]1c1ccc(-c2ccco2)cc1 (relative stereo) | inactive | < 12% | < 12% | 1200 nM | inactive | – | – | 75% | – | –
NC[C@H]1C[C@@H]1c1cccc(NC(=O)c2ccccc2)c1 (relative stereo) | inactive | < 12% | < 12% | > 1000 nM | inactive | – | – | 26% | – | –
CC(C)(O)C#Cc1cccc([C@H]2C[C@@H]2CN)c1 (relative stereo) | inactive | < 12% | < 12% | > 5000 nM | inactive | – | – | 62% | – | –
NC[C@H]1C[C@@H]1c1ccc(C#CCCCCO)cc1 (relative stereo) | inactive | < 12% | < 12% | > 10000 nM | inactive | – | – | 24% | – | –
NC[C@H]1C[C@@H]1c1ccccc1-c1ccc(F)cc1 (relative stereo) | inactive | 43% | < 12% | 301 nM | – | > 1000 nM | – | 74% | – | > 3
NC[C@H]1C[C@@H]1c1cccc(-c2ccc(F)cc2)c1 (relative stereo) | inactive | < 12% | < 12% | 695 nM | inactive | – | – | 79% | – | –
NC[C@H]1C[C@@H]1c1ccccc1-c1cc2ccccc2o1 (relative stereo) | inactive | 10% | < 12% | 1960 nM | – | > 1000 nM | – | 66% | – | > 1

SMILES | Activity [1] | Emax [2] | Emax [3] | EC50 [4] | Activity [5] | EC50 [5] | EC50 [1] | Emax [6] | Ratio EC50 [7] | Ratio EC50 (Homo sapiens)
NC[C@H]1C[C@@H]1c1ccccc1NC(=O)c1ccccc1 (relative stereo) | inactive | < 12% | < 12% | > 1000 nM | inactive | – | – | 39% | – | –
NC[C@H]1C[C@@H]1c1ccccc1NC(=O)Nc1ccc(Cl)cc1 (relative stereo) | inactive | < 12% | < 12% | > 1000 nM | inactive | – | – | 38% | – | –
NC[C@H]1C[C@@H]1c1cccc(NCc2ccccc2)c1 (relative stereo) | inactive | < 12% | < 12% | 1180 nM | inactive | – | – | 77% | – | –
NC[C@@H]1C[C@H]1c1ccccc1 (relative stereo) | – | – | – | 13 nM | – | 85 nM | 1400 nM | – | – | –
NC[C@H]1C[C@@H]1c1cccc(-c2ccc(C(F)(F)F)cc2)c1 (relative stereo) | inactive | < 12% | < 12% | > 1000 nM | inactive | – | – | 61% | – | –
NC[C@H]1C[C@@H]1c1cccc(-c2ccc(Cl)cc2)c1 (relative stereo) | inactive | < 12% | < 12% | 1580 nM | inactive | – | – | 87% | – | –
COc1ccc([C@H]2C[C@@H]2CN)cc1 (relative stereo) | inactive | < 12% | < 12% | – | inactive | – | – | 86% | – | –
Cc1cc([C@H]2C[C@@H]2CN)ccc1F (relative stereo) | – | 83% | 73% | – | – | – | – | 91% | 39 | 0.83
Cc1ccc(Cl)c([C@H]2C[C@@H]2CN)c1F (relative stereo) | – | 74% | 65% | – | – | – | – | 117% | 26 | 9.2
Cc1ccc([C@H]2C[C@@H]2CN)c(Br)c1 (relative stereo) | – | 68% | 62% | – | – | – | – | 84% | 4.8 | 1.2
Cc1ccc([C@H]2C[C@@H]2CN)cc1 (relative stereo) | – | 79% | 18% | – | – | – | – | 69% | 14 | 0.28
Cc1ccc([C@H]2C[C@@H]2CN)cc1C (relative stereo) | – | 78% | 40% | – | – | – | – | 97% | 68 | 0.33
Cc1cccc(Cl)c1[C@H]1C[C@@H]1CN (relative stereo) | – | 90% | 56% | – | – | – | – | 97% | 207 | 2
Cc1cccc([C@H]2C[C@@H]2CN)c1C (relative stereo) | – | 90% | 59% | – | – | – | – | 107% | 52 | 1.2
NC[C@H]1C[C@@H]1c1ccc(Cl)cc1Cl (relative stereo) | – | 89% | 88% | – | – | – | – | 98% | 2.9 | 4.7
NC[C@H]1C[C@@H]1c1ccc(Cl)cc1F (relative stereo) | – | 86% | 83% | – | – | – | – | 94% | 6.1 | 3.6
NC[C@H]1C[C@@H]1c1ccc(F)c(F)c1 (relative stereo) | – | 96% | 96% | – | – | – | – | 103% | 64 | 3.2
NC[C@H]1C[C@@H]1c1ccc(F)cc1F (relative stereo) | – | 88% | 85% | – | – | – | – | 98% | 13 | 9.9
NC[C@H]1C[C@@H]1c1cccc(Cl)c1Cl (relative stereo) | – | 89% | 77% | – | – | – | – | 96% | 33 | 1.4
NC[C@H]1C[C@@H]1c1cccc(F)c1F (relative stereo) | – | 93% | 45% | – | – | – | – | 101% | > 50 | 3.7
